Consider four compounds from patent publication US8765675B2, “Use of calcitonin in osteoarthritis” (Novartis AG, priority 2003, dated 2014).

Where no end group is shown, it is not given here.

The nature of data set [1]: Water solubility of delivery agent.
The test system of data set [2] is animal epiphyseal cartilage, rabbit and human cartilage. Conditions: in vitro; cited from earlier work.
The test system of the next data set is cartilage. Conditions: cited from earlier work.
The conditions of data set [3]: in vivo.
Data set [4] deals with urinary collagen type II degradation products (CTX-II). In words: 3-month oral sCT treatment, 24 hours urinary CTX-II corrected for creatinine. In kind it is in vivo, human. As for the experimental part:
(§1) Women receive treatment with either daily (0.15, 0.4, 1.0, or 2.5 mg) orally dosed sCT (see below for pharmaceutical compositions) combined with eligen technology-based carrier molecule (200 mg), or placebo for 3 months. All participants receive a calcium supplement of 1000 mg plus 400 IU of vitamin D daily throughout the study. Efficacy parameters are 24 hours urinary C-terminal telopeptide of collagen type I (CTX-I) and CTX-II corrected for creatinine excretion assessed at baseline and after 3-month therapy.
(§2) C-telopeptide of type I collagen (CTX I) is considered to be a specific marker sensitive to bone resorption; conversely, type II collagen C-telopeptide (CTX-II) is considered to be a useful cartilage marker.

Data set [5] concerns urinary C-terminal telopeptide of collagen type I (CTX-I). Briefly: 3-month oral sCT treatment, 24 hours urinary CTX-I corrected for creatinine. The format is in vivo, human. Conditions: 1.0 mg sCT daily oral, 3-month treatment, compared to placebo group, p<0.001. The protocol: as §1, §2

Turning to `O=C(O)CCCCCCCNC(=O)c1cc(Cl)ccc1O` [5 CNAC, N-(5-chlorosalicyloyl)-8-aminocaprylic acid], in data set [1], the water solubility entry was “very water soluble”.
In the case of “calcitonin (CGNLSTCMLGTYTQDFNKFHTFPQTAIGVGAP; ends and bridges not checked; cysteine pairing not given here; UniProt P01258 85-116, looked up) [origin not specified in cited studies]”, the “effect on proteoglycan and collagen synthesis in cartilage” value in data set [2] was “stimulate proteoglycan and collagen synthesis”. In addition, the effect on cartilage result in the data set on cartilage (another menisectomy model (Colombo 1983)) is listed as “no effect on cartilage”. Besides, in the data set on cartilage (rabbits treated with steroids, partial menisectomy or joint immobilization (Badurski 1991)), the “effect on cartilage destruction” value was “prevent cartilage destruction”.
On to `O=C(O)CCCCCCCCCNC(=O)c1ccccc1O` [SNAD, N-(10-[2-hydroxybenzoyl]amino)decanoic acid], for which the “absorbed by the gastro-intestinal tract” value in data set [3] is “more than 90%”.
As to salmon calcitonin [sCT], the “decrease in urinary CTX-II after 3-month treatment” value in data set [4] (0.4 mg sCT daily oral, postmenopausal women, compared to placebo, p=0.04) is recorded as −15.2%; in data set [4] (1.0 mg sCT daily oral, postmenopausal women, compared to placebo, p=0.009) it was −19.7%; in data set [4] (1.0 mg sCT, women in the highest tertile of baseline urinary CTX-II), −36.6%; in data set [4] (1.0 mg sCT, women in the lowest tertile of baseline urinary CTX-II), −9.9%; in data set [4] (2.5 mg sCT daily oral, postmenopausal women, compared to placebo, p=0.02) it was −17.5%. In addition, the “24 hours urinary CTX-II response to oral sCT, dose relationship” value in data set [4] (0.15, 0.4, 1.0, 2.5 mg daily, 3 months, ANOVA=0.012) was “clear and significant dose dependent relationship”. The “reduction in 24-hours urinary CTX-I” value in data set [5] was −41.0%.
